# Where a SMILES comes first, the peptide text is derived from it. Bridges are numbered along the chain shown (N, C = ends).
# Assays:
# Format in all cases: cell-based
# E. coli SWI 531 = assay: MIC/MBC, clinical isolate resistant to colistin sulfate, lincomycin and tilmicosin; conditions: source pig tissue
# Protocol: (§1) The minimum inhibitory concentration (MIC) refers to the lowest concentration that can produce a significant hindrance to bacterial growth in a drug sensitivity test by adopting a broth dilution, with certain refinements and modifications based on the previous description ([25], [26]). In short, MccJ25 was dissolved in sterilized distilled water (SDW), serial 2-fold dilutions were prepared in Mueller-Hinton broth (MHB) through a 96-well microtiter plate, and the final concentration of MccJ25 was maintained in the range of 0.003125 to 256 μg/mL. Then, 2 μL of standard and clinically relevant overnight broth cultures of bacteria were inoculated into each well at a concentration of 5 × 10^6 CFU/mL. Microtiter plates were incubated at 37°C for one full day. Two groups were set up: positive (medium with inoculum) and negative (medium only) controls. The minimum bactericidal concentration (MBC) was measured in LB medium and refers to the first drug dilution value at which the initial bacterial concentration was reduced by 99.99%. The final analysis was determined by the results of three replicated and independent experiments. To further assess and clarify the antimicrobial activity of MccJ25, the protective ability against E. coli adhesion, live/dead assay, and killing curve were performed, the detailed methods were provided in Supplementary Materials .
# E. coli SWI 541 = assay: as above; conditions: source pig stool
# Protocol: as §1
# E. coli BRO 528 = assay: as above; conditions: source broiler stool
# Protocol: as §1
# E. coli SWI 441 = assay: as above; conditions: source pig stool
# Protocol: as §1
# E. coli K88 (ETEC K88) = assay: Killing curves (bactericidal activity at different growth phases)
# Protocol: Figure 1 Bactericidal activity assay of MccJ25 against E coli K88. Different concentrations of E coli K88 were cultured in LB containing different levels of MccJ25. E coli K88 cells (5 × 10^5 CFU/mL) were incubated and grown to different stages, including early-log (A), late-log (B) and stationary (C) phases. Additionally, bacteria, 5 × 10^8 CFU/mL, were cultured and grown to early-log (D), late-log (E) and stationary (F) phases. Data are means ± standard error of mean from 6 biological replicates.
# A purified single colony of E. coli K88 was inoculated into 5 mL of LB. Then, culture was incubated at 37◦C with shaking at 200 rpm overnight. The next day, the culture was diluted 1:100 in fresh LB and incubated at 37◦C with shaking at 200 rpm again. To test antimicrobial activity, the bacteria were grown until they reached log phase. […] The cultures were serially diluted with sterilized saline water and plated on LB agar at different hours. The plates were incubated at 37◦C overnight to count colony. Colonies were counted to determine CFU/mL. The experiment was conducted with two replicates in three independent trials. A Live/Dead BacLight Bacterial Viability Kit 7 (Molecular Probes, Inc., Eugene) was used to test bacterial viability. […] E. coli K88 cultures were incubated at 37◦C for 2 h and then incubated in the dark at ambient temperature with SYTO 9 and propidium iodide for 15 min. Bacteria were observed using a fluorescence microscope (EVOS XL Cell Imaging System).
# E. coli K88 = assay: Electron microscopy (SEM, TEM) of treated bacteria
# Protocol: Scanning electron microscope (SEM) was performed to test the morphological features of E. coli K88 cells by comparing cells incubated in the absence (control) or presence of MccJ25. For SEM sample preparation, the standard protocol was used based on our previous report ([26]) with slight modifications. Overnight E. coli K88 cultures were inoculated and grown to the mid-logarithmic phase in the fresh LB medium at 37°C for 2 h, then harvested by centrifugation, washed twice with PBS and re-suspended in the same buffer. Approximately 2 × 10^7 cells were incubated with 1 and 2 × MIC MccJ25 at 37°C for 1 h. Thereafter, cells were pooled and centrifuged at 5000 g for 5 min. Bacterial pellets were washed 3 times with PBS and centrifuged after each wash. Cells were fixed with 2.5% glutaraldehyde at 4°C overnight and washed 2 times with PBS. They were then harvested, post-fixed with 1% osmium tetroxide for 1 h and dehydrated for 15 min each in a graded ethanol series (50, 70, 80, 90, 95 and 100%). Cells were then treated with absolute acetone for 20 min, a mixture of alcohol and iso-amyl acetate (1:1) for 30 min and pure iso-amyl acetate for 1 h. Lastly, samples were dehydrated in a critical point dryer (Model HCP-2, Hitachi, Chiyoda-ku, Tokyo, Japan) with liquid CO2. The dehydrated samples were coated with gold-palladium and observed by SEM (Model EVO MA10 XVP, Carl Zeiss, Jena, GmbH, Germany). […]
# [1] = LB medium, 99.99% reduction, three independent experiments
# [2] = broth dilution in MHB, 37°C, three independent experiments
smiles,measurement,setting,value
"CC[C@H](C)[C@H](NC(=O)CNC(=O)[C@@H](NC(=O)[C@H](Cc1ccccc1)NC(=O)[C@H](Cc1ccc(O)cc1)NC(=O)[C@@H]1CCC(=O)NCC(=O)NCC(=O)N[C@@H](C)C(=O)NCC(=O)N[C@@H](Cc2c[nH]cn2)C(=O)N[C@@H](C(C)C)C(=O)N2CCC[C@H]2C(=O)N1)C(C)C)C(=O)NCC(=O)N[C@H](C(=O)N1CCC[C@H]1C(=O)N[C@H](C(=O)N[C@@H](CO)C(=O)N[C@@H](Cc1ccccc1)C(=O)N[C@@H](Cc1ccc(O)cc1)C(=O)NCC(=O)O)[C@@H](C)CC)[C@@H](C)O [MccJ25, microcin J25] (GGAGHVPEYFVGIGTPISFYG-OH; lactam N-8 (inferred); C-terminus assumed)",MBC,E. coli SWI 531; [1],0.500 µg/mL
same,MIC,E. coli SWI 531; [2],0.060 µg/mL
same,MIC/MBC,E. coli SWI 531; ratio,0.120
same,MBC,E. coli SWI 541; [1],2.000 µg/mL
same,MIC,E. coli SWI 541; [2],0.500 µg/mL
same,MIC/MBC,E. coli SWI 541; ratio,0.250
same,MBC,E. coli BRO 528; [1],2.000 µg/mL
same,MIC,E. coli BRO 528; [2],0.500 µg/mL
same,MIC/MBC,E. coli BRO 528; ratio,0.250
same,MBC,E. coli SWI 441; [1],0.500 µg/mL
same,MIC,E. coli SWI 441; [2],0.060 µg/mL
same,MIC/MBC,E. coli SWI 441; ratio,0.120
same,time in which all inoculants were killed,"E. coli K88 (ETEC K88); at the indicated MICs, stationary phase",≤ 6 h
same,time in which all inoculums were killed,"E. coli K88 (ETEC K88); inoculum 5 × 10^5 CFU/mL, 2 × MIC, each growth period (early log, late log, stationary), LB, 37°C",≤ 4 h
same,reduction of bacterial count,"E. coli K88 (ETEC K88); inoculum 5 × 10^5 CFU/mL, 4 × MIC, after 2 h incubation",5 log
same,reduction of bacterial count,"E. coli K88 (ETEC K88); inoculum 5 × 10^5 CFU/mL, at the indicated MICs, at 2 h, all phases",approximately 4 log
same,reduction of bacterial count,"E. coli K88 (ETEC K88); inoculum 5 × 10^8 CFU/mL at log phase, 4 × MIC, 12 h",8 log
same,reduction of bacterial count,"E. coli K88 (ETEC K88); inoculum 5 × 10^8 CFU/mL, 1 × MIC, within 7 h",6 log
same,cell morphology by SEM,"E. coli K88; 1 × and 2 × MIC, 60 min",filamentous and elongated
same,cell membranes by TEM,"E. coli K88; 1 ×, 2 × and 4 × MIC, 0.5 and 1 h",disrupted

# Source: PMC8894198, “Biosynthetic Microcin J25 Exerts Strong Antibacterial, Anti-Inflammatory Activities, Low Cytotoxicity Without Increasing Drug-Resistance to Bacteria Target” (Frontiers in Immunology, 2022)
